Source: patent publication US11286268B1, “EIF4E-inhibiting compounds and methods” (EFFECTOR THERAPEUTICS, INC., priority 2019, dated 2022)
Read-outs that look alike come from different tables or passages of the source.

Target: recombinant eIF4E (Homo sapiens (Human), UniProt P06730)
Assay: Fluorescence polarization competition assay for eIF4E binding potency
Outline: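 IC50 derived from fluorescence polarization over an 8-point, 3-fold compound series after 30 min room-temperature equilibration in the dark. Mix: eIF4E 75 nM pre-bound 5 min to 20 nM EDA-m^7GDP-ATTO-550; buffer 20 mM Tris pH 7.5, 100 mM NaCl, 1 mM DTT, 0.02% Tween-20; DMSO 1%.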

[1] = fluorescence polarization competition, 75 nM recombinant eIF4E, 20 nM EDA-m7GDP-ATTO-550, IC50 class, read-out: elF4E FP
[2] = inhibition of eIF4E/EDA-m7GDP-ATTO-550 binding by 50%, Table 4B calculated values, read-out: IC50
[3] = inhibition of eIF4E/EDA-m7GDP-ATTO-550 binding, calculated IC50 values, Table 4B, read-out: IC50

recombinant eIF4E, sequence (P06730 whole entry): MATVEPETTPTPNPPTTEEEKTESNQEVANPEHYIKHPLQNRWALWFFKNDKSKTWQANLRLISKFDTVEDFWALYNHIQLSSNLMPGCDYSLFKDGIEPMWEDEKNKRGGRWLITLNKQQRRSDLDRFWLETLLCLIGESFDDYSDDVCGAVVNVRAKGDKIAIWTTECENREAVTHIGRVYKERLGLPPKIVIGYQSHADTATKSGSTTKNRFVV

| Compound | IC50 [1] [µM] | IC50 [2] [µM] | IC50 [3] [µM] |
| --- | --- | --- | --- |
| Cc1cc(-c2ncc3nc(C)n(CCOc4ccc(Cl)cc4-c4ccc(C)c5c(C(=O)O)csc45)c(=O)c3c2C#N)ccn1 [compound 763] | < 0.05 | 0.00519 | – |
| Cc1nc2cnc(N(C)C3CCN(C4(C(F)F)CC4)CC3)c(C#N)c2c(=O)n1CC#Cc1ccc(Cl)cc1-c1ccnc2c(C(=O)O)csc12 [compound 1522] | – | – | 0.0177 |
| Cc1nc2cnc(N3CC4(C3)CN(C(C)(C)C(F)F)C4)c(C#N)c2c(=O)n1CCOc1ccc(Cl)cc1-c1ccnc2c(C(=O)O)csc12 [compound 823] | < 0.05 | 0.0115 | – |
| Cc1cc(-c2cc(Cl)ccc2OCCn2c(C)nc3cc(C(F)(F)F)c(CN4CC5CCC(C4)N5C)c(C#N)c3c2=O)c2scc(C(=O)O)c2n1 [compound 740] | < 0.05 | 0.0392 | – |
| CCc1cc(-c2cc(Cl)ccc2OCCn2c(C)nc3cc(C(F)(F)F)c(N4CCN(C)CC4)c(C#N)c3c2=O)c2scc(C(=O)O)c2n1 [compound 1085] | 0.05 to 1 | 0.0543 | – |
| Cc1nc2cc(Cl)c(Cl)c(C#N)c2c(=O)n1CC#Cc1ccc(Cl)cc1-c1ccnc2c(C(=O)O)csc12 [compound 257] | 0.05 to 1 | 0.0692 | – |
| Cc1cnc(-c2nc3c(=O)n(CCOc4ccc(Cl)cc4-c4cc(C)nc5c(C(=O)O)csc45)c(C)nc3cc2C(F)(F)F)c(Cl)n1 [compound 1024] | < 0.05 | 0.0242 | – |
| N#Cc1cc(C(F)(F)F)cc2ncn(CCOc3ccc(Cl)cc3-c3ccnc(C(=O)O)c3)c(=O)c12 [compound 162] | < 0.05 | 0.0287 | – |
| Cc1c(S(C)(=O)=O)c2cc(C(F)(F)F)cc(C#N)c2c(=O)n1CCOc1ccc(Cl)cc1-c1ccnc2c(C(=O)O)csc12 [compound 318] | < 0.05 | 0.00292 | – |
| Cc1nc2cc(S(C)(=O)=O)c(Cl)c(C#N)c2c(=O)n1CCOc1ccc(Cl)cc1-c1ccnc2c(C(=O)O)csc12 [compound 277] | < 0.05 | 0.0307 | – |
| Cc1nc2cnc(N3CCN(C4(C(F)F)CC4)CC3)c(C#N)c2c(=O)n1CCOc1ccc(Cl)cc1-c1ccnc2c(C(=O)O)csc12 [compound 1310] | – | – | 0.0213 |
| N#Cc1cccc2nc(C(F)F)n(CCOc3ccc(Cl)cc3-c3ccc(C(=O)O)c(C(=O)O)c3)c(=O)c12 [compound 148] | < 0.05 | 0.0205 | – |
| Cc1cc(-c2cc(Cl)ccc2OCCn2c(C)nc3cnc(N4CC(C)(O)C4)c(C#N)c3c2=O)c2scc(C(=O)O)c2n1 [compound 1057] | < 0.05 | 0.0125 | – |
| Cc1cc(-c2cc(Cl)ccc2OCCn2c(C)nc3cc(C(F)(F)F)c(-c4cncnc4)nc3c2=O)c2scc(C(=O)O)c2n1 [compound 768] | < 0.05 | 0.0224 | – |
| Cc1nc2cncc(C#N)c2c(=O)n1CC#Cc1ccc(Cl)cc1-c1ccnc2c(C(=O)O)csc12 [compound 624] | < 0.05 | 0.00402 | – |
| Cc1nc2c(F)cc(C(F)F)c(C#N)c2c(=O)n1CCOc1ccc(Cl)cc1-c1ccnc2c(-c3nnn[nH]3)csc12 [compound 302] | 0.05 to 1 | 0.0776 | – |
| Cc1cc2c(=O)n(CCOc3ccc(Cl)cc3-c3cccc(C(=O)O)c3)cnc2cn1 [compound 138] | 0.05 to 1 | 0.279 | – |
| CCc1cc(-c2cc(Cl)ccc2OCCn2c(C)nc3cc(C(F)(F)F)c(-c4cc(F)cnc4C)c(C#N)c3c2=O)c2scc(C(=O)O)c2n1 [compound 1017] | < 0.05 | 0.00826 | – |
| Cc1cc(-c2cc(Cl)ccc2OCCn2c(C)nc3cc(C(F)(F)F)c(-c4nccnc4C)nc3c2=O)c2scc(C(=O)O)c2n1 [compound 1019] | < 0.05 | 0.0308 | – |
| Cc1nc2cc(C(F)(F)CN(C)C)cc(C#N)c2c(=O)n1CCOc1ccc(Cl)cc1-c1ccnc2c(C(=O)O)csc12 [compound 514] | < 0.05 | 0.0399 | – |
| Cc1cc(-c2cc(Cl)ccc2OCCn2c(C)nc3cnc(N(C)N(C)C)c(C#N)c3c2=O)c2scc(C(=O)O)c2n1 [compound 978] | < 0.05 | 0.0207 | – |
| Cc1nc2cnc(N(C)C3CCN([C@H]4C[C@@H](OC(F)(F)F)C4)CC3)c(C#N)c2c(=O)n1CC#Cc1ccc(Cl)cc1-c1ccnc2c(C(=O)NS(=O)(=O)C3COC3)csc12 [compound 1610] | – | – | 0.00602 |
| Cc1cc(-c2cc(Cl)ccc2OCCn2c(C)nc3cc(F)c(CN4CCOCC4)c(C#N)c3c2=O)c2scc(C(=O)O)c2n1 [compound 367] | < 0.05 | 0.00287 | – |
| Cc1nc2cc(CN(C)C)c(C(F)F)c(C#N)c2c(=O)n1CCOc1ccc(Cl)cc1-c1ccnc2c(C(=O)O)csc12 [compound 515] | < 0.05 | 0.046 | – |
| Cc1nc2cnc(N(C)C3CCN(CC(F)(F)c4ccn(C)n4)CC3)c(C#N)c2c(=O)n1CC#Cc1ccc(Cl)cc1-c1ccnc2c(C(=O)O)csc12 [compound 1536] | – | – | 0.0183 |
| Cc1nc2cnc(/C=C/CN(C)CC(F)(F)F)c(C#N)c2c(=O)n1CCOc1ccc(Cl)cc1-c1ccnc2c(C(=O)O)csc12 [compound 1898] | – | – | 0.0613 |

| Compound | IC50 [1] [µM] | IC50 [2] [µM] | IC50 [3] [µM] |
| --- | --- | --- | --- |
| Cc1nc2cc(C(F)(F)F)c(CC3CN(CC(F)(F)F)C3)c(C#N)c2c(=O)n1CCOc1ccc(Cl)cc1-c1ccnc2c(C(=O)O)csc12 [compound 494] | 0.05 to 1 | 0.0856 | – |
| CNC(=O)c1cc2c(=O)n(CCOc3ccc(Cl)cc3-c3cccc(C(=O)O)c3)cnc2cn1 [compound 132] | 0.05 to 1 | 0.624 | – |
| Cc1cc(-c2cc(Cl)ccc2OCCn2c(C)nc3cc(C(F)(F)F)c(C)c(C#N)c3c2=O)c2scc(C(=O)O)c2n1 [compound 363] | < 0.05 | 0.0228 | – |
| Cc1cc(-c2cc(Cl)ccc2OCCn2c(C)nc3cc(Cl)c(CCN(C)C)c(C#N)c3c2=O)c2scc(C(=O)O)c2n1 [compound 609] | < 0.05 | 0.0331 | – |
| CC(COc1ccc(Cl)cc1-c1cccc(C(=O)O)c1)n1cnc2cnc(C#N)cc2c1=O (centres unmarked) [compound 129] | > 1 | 3.1 | – |
| COCc1ncc(C#N)c2c(=O)n(CCOc3ccc(Cl)cc3-c3ccc(C)c4c(C(=O)O)csc34)c(C)nc12 [compound 727] | < 0.05 | 0.0294 | – |
| Cc1cc(-c2cc(Cl)ccc2OCCn2c(C)nc3cnc(-c4ccc(C(F)(F)F)cc4)c(C#N)c3c2=O)c2scc(C(=O)O)c2n1 [compound 952] | < 0.05 | 0.045 | – |
| Cc1nc2cc(Cl)cc(C#N)c2c(=O)n1CCOc1ccc(Cl)cc1-c1ccnc2c(C(=O)O)csc12 [compound 200] | < 0.05 | 0.0435 | – |
| Cc1sc2c(-c3cc(Cl)ccc3OCCn3c(C)nc4cc(C(F)(F)F)c(CN(C)C)c(C#N)c4c3=O)ccnc2c1C(=O)O [compound 556] | < 0.05 | 0.0227 | – |
| CCN(c1ncc2nc(C)n(CC#Cc3ccc(Cl)cc3-c3ccnc4c(C(=O)O)csc34)c(=O)c2c1C#N)C1CCN(CC(C)(F)F)CC1 [compound 1177] | < 0.05 | 0.0342 | – |
| Cc1nc2cc(C(F)(F)F)cc(C#N)c2c(=O)n1CCOc1ccccc1-c1ccnc2c(C(=O)O)csc12 [compound 227] | 0.05 to 1 | 0.507 | – |
| Cc1nc2cc(C(F)(F)F)c(N3CCN(C4COC4)CC3)c(C#N)c2c(=O)n1CCOc1ccc(Cl)cc1-c1ccnc2c(C(=O)O)csc12 [compound 1241] | < 0.05 | – | 0.0173 |
| Cc1cc(-c2cc(Cl)ccc2OCCn2c(C)nc3cnc(OCc4ccccn4)c(C#N)c3c2=O)c2scc(C(=O)O)c2n1 [compound 1039] | < 0.05 | 0.0217 | – |
| CCc1cc(-c2cc(Cl)ccc2OCCn2c(C)nc3c(C)nc(N)c(C#N)c3c2=O)c2scc(C(=O)O)c2n1 [Compound 1069] | < 0.05 | 0.00152 | – |
| Cc1nc2cnc(N3CCN(C4CC4)CC3)c(C#N)c2c(=O)n1CC#Cc1ccc(Cl)cc1-c1ccnc2c(C(=O)O)csc12 [compound 1354] | – | – | 0.0216 |
| Cc1nc2cnc(N(C)C3CCN(CC(F)(F)c4ccccc4)CC3)c(C#N)c2c(=O)n1CC#Cc1ccc(Cl)cc1-c1ccnc2c(C(=O)O)csc12 [compound 1555] | – | – | 0.0239 |
| Cc1cc(-c2cc(Cl)ccc2OCCn2c(C)nc3cc(C(F)(F)F)c(N4CCN(C)CC4)c(C#N)c3c2=O)c(C)c(C(=O)O)n1 [compound 1226] | < 0.05 | – | 0.00663 |
| Cc1cc(-c2cc(Cl)ccc2OCCn2c(C)nc3c(-c4ccccc4)nc(N(C)C)c(C#N)c3c2=O)c2scc(C(=O)O)c2n1 [compound 987] | < 0.05 | 0.0136 | – |
| Cc1ncc(C#N)c2c(=O)n(CCOc3ccc(Cl)cc3-c3ccc(Cl)c4c(C(=O)O)csc34)c(C)nc12 [compound 723] | < 0.05 | 0.0287 | – |
| Cc1cc(-c2cc(Cl)ccc2OCCn2c(C)nc3cc(CN(C)C)c(C(F)(F)F)c(C#N)c3c2=O)c2scc(C(=O)O)c2n1 [compound 635] | < 0.05 | 0.0106 | – |
| Cc1nc2cnc(/C=C/C3(N(C)C)CC3)c(C#N)c2c(=O)n1CCOc1ccc(Cl)cc1-c1ccnc2c(C(=O)O)csc12 [compound 1123] | < 0.05 | 0.0215 | – |
| Cc1nc2cc(C(F)(F)F)c(N3CCNCC3)c(C#N)c2c(=O)n1CCOc1ccc(Cl)cc1-c1ccnc2ccsc12 [compound 855] | < 0.05 | 0.00477 | – |
| CCN(c1ncc2nc(C)n(CC#Cc3ccc(Cl)cc3-c3ccnc4c(C(=O)O)csc34)c(=O)c2c1C#N)C1CCN(CC(F)(F)C(F)F)CC1 [compound 1191] | < 0.05 | – | 0.0128 |
| Cc1nc2cc(OC(F)(F)F)cc(C#N)c2c(=O)n1CCOc1ccc(Cl)cc1-c1ccnc2c(C(=O)O)csc12 [compound 456] | < 0.05 | 0.0109 | – |
| Cc1cc(-c2cc(Cl)ccc2OCCn2c(C)nc3cc(C(F)(F)F)c(N4CCSCC4)c(C#N)c3c2=O)c2scc(C(=O)O)c2n1 [compound 992] | 0.05 to 1 | 0.0561 | – |
